{"source": "paper PMC12772033", "about": "“A drought stress-responsive metabolite malate modulates stomatal responses through G-protein-dependent pathway in grapevine and Arabidopsis” (Molecular Horticulture, 2026)", "key": {"VvSLAC1 [1]": {"target": "T1, VvSLAC1 (Vitis vinifera, UniProt A0ABY9BHH9, F440A)", "T1 construct": "gene VitviT2T_002114; cDNA in pNB1u, cRNA expressed in Xenopus laevis oocytes; no tag mentioned; model trimmed 1-141 and 507-553", "T1 sequence (A0ABY9BHH9 entry or part of it F440A)": "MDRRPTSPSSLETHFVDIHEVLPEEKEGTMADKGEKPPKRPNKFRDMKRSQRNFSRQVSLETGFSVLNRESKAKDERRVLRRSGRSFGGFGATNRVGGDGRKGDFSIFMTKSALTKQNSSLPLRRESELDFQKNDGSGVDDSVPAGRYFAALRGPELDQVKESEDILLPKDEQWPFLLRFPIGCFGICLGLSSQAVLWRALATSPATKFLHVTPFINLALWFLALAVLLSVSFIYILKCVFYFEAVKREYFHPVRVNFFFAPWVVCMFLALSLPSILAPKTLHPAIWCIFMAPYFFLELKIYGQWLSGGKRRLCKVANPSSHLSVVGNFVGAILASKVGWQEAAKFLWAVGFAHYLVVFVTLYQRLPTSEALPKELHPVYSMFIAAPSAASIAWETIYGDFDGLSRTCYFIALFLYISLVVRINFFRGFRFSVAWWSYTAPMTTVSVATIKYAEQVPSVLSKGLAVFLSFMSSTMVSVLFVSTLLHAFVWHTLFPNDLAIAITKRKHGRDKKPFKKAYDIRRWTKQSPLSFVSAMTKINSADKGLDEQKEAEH", "assay": "two-electrode voltage clamp, ramp mode, Xenopus oocytes", "format": "cell-based", "conditions": "activator of open-gate mutant, pH 5.6, 1 mM LaCl3, ramp +60 to -120 mV"}, "VvSLAC1 [2]": {"target": "T1, VvSLAC1", "assay": "two-electrode voltage clamp, Xenopus oocytes", "format": "cell-based", "conditions": "activator of open-gate mutant"}, "[3]": {"conditions": "pH 5.6, 1 mM LaCl3, -120 mV gap-free and I-V steps"}}, "note": "Counter-ions that a name gives are not always drawn."}
{"smiles": "O=C(O)CC(O)(CC(=O)O)C(=O)O", "note": "[Cit, citrate]", "values": [{"measurement": "current at 10 mM", "setting": "VvSLAC1 [1]", "result": "The metabolites other than monocarboxylates activated VvSLAC1F440A."}]}
{"smiles": "O=C(O)/C=C/C(=O)O", "note": "[Fum, fumarate]", "values": [{"measurement": "relative current at 10 mM", "setting": "VvSLAC1 [2]; [3]", "result": "Dicarboxylates, however, promoted the activity of VvSLAC1F440A."}]}
{"smiles": "O=C(O)C[C@H](O)C(=O)O", "note": "[Mal, malate]", "values": [{"measurement": "relative current at 10 mM", "setting": "VvSLAC1 [2]; [3]", "result": "Dicarboxylates, however, promoted the activity of VvSLAC1F440A."}]}
{"smiles": "O=C(O)CC(=O)C(=O)O", "note": "[Oxal, oxalacetate]", "values": [{"measurement": "relative current at 10 mM", "setting": "VvSLAC1 [2]; pH 5.6, 1 mM LaCl3, -120 mV gap-free", "result": "Dicarboxylates, however, promoted the activity of VvSLAC1F440A."}]}
